The test deals with T1, Human sputum neutrophil elastase (Homo sapiens, UniProt P08246).
T1 construct: purchased Elastin Products Co; host or cells: human sputum (natural source)
T1 sequence (P08246 30-247 limits assumed): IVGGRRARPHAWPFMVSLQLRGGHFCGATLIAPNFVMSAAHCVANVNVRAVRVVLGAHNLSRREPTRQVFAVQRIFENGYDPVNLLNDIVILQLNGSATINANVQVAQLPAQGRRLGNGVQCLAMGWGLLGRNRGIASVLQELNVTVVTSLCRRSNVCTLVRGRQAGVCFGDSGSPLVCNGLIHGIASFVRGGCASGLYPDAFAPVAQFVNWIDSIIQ
Description: Inhibitor IC50 against human neutrophil elastase (fluorogenic MeOSuc-AAPV-AMC substrate). In kind it is biochemical. As to conditions: 20 min preincubation, read-out: HNE IC50. On the procedure:
Determination of Inhibitor IC50 Values Against Human Neutrophil Elastase
Human sputum neutrophil elastase (Elastin Products Co.) was diluted into Assay Buffer A (200 mM Tris pH 7.4, 1 mg/ml BSA) to a working concentration of 0.55 U/ml. […] DMSO alone was used as the negative control. MeOSuc-AAPV-AMC (Bachem) substrate was dissolved in DMSO to 20 mM and further diluted to 1 mM in Assay Buffer A immediately before use. Substrate was added to the elastase assay at a final concentration of 1×10^−4 M. The reaction was allowed to proceed for 20 minutes at room temperature and then quenched with acetic acid at a final concentration of 3% (v/v). […] Fluorescence intensity versus inhibitor concentration was plotted and fit to the Hill equation to quantify IC50 values.
As a reminder, the IC50 is the midpoint of a concentration-inhibition curve. Regarding `CCCc1cc(OC)cc2nc(-c3cccnc3N3CCC(C(=O)C[S+](C)[O-])CC3)oc(=O)c12` (centres unmarked) [Compound 163], the IC50 fell in the range of 0.061 to 0.15 µM.
In the case of `O=c1oc(-c2cccnc2SCCS(=O)(=O)c2ccccc2)nc2cccc(Cl)c12` [Compound 30], the 50% inhibitory concentration (IC50) was 0.016 to 0.06 µM.
As for `COc1cc(C2CC2)c2c(=O)oc(-c3cccnc3N3CCN(CCN4CCOCC4)CC3)nc2c1` [Compound 168], the IC50 is 0.061 to 0.15 µM.
The figure for `Cc1cccc2nc(-c3cccnc3F)oc(=O)c12` [Compound 34] is 0.061 to 0.15 µM; for `CCc1cccc2nc(-c3cccnc3N3CCN(CCN4CCOCC4)CC3)oc(=O)c12` [Compound 152] it is below 0.015 µM.
The same measure for `CCc1cccc2nc(-c3cccnc3N3CC[N+](C)(C)CC3)oc(=O)c12` [Compound 95]: below 0.015 µM; for `CCc1cc(OC)cc2nc(-c3cccnc3N3CCCN(C)CC3)oc(=O)c12` [Compound 195]: below 0.015 µM.
Consider `CCc1cccc2nc(-c3cccnc3N3CCN(Cc4ccc(F)cc4)CC3)oc(=O)c12` [Compound 99], for which the IC50 is below 0.015 µM.
As for `CCc1cc(N(C)C)cc2nc(-c3cccnc3N(C)C3CCN(C)C3)oc(=O)c12` (centres unmarked) [Compound 144], the IC50 was above 0.15 µM.
As to `COc1cc(C2CC2)c2c(=O)oc(-c3cccnc3N3CC[C@@H](N(C)C)C3)nc2c1` [Compound 164], the IC50 lay in the range of 0.061 to 0.15 µM.
`CCc1cc(OC)cc2nc(-c3cccnc3N3CCC(N4CCOCC4)CC3)oc(=O)c12` [Compound 251]: the 50% inhibitory concentration (IC50) was below 0.015 µM.
The same measure for `COCCOCCOCCOCCOCCOCCOCCOc1ncccc1-c1nc2cc(OC)cc(C(C)C)c2c(=O)o1` [Compound 108]: above 0.15 µM.
The figure for `Cc1cccc2nc(-c3cccnc3OCCOCCOCCOCCOc3ncccc3C(=O)O)oc(=O)c12` [Compound 58] is 0.061 to 0.15 µM.
The same measure for `COCCN(CCOC)c1ncccc1-c1nc2cccc(C)c2c(=O)o1` [Compound 55]: above 0.15 µM; for `CCc1cc(OC)cc2nc(-c3cccnc3N3CCCC(CN4CCOCC4)C3)oc(=O)c12` (centres unmarked) [Compound 243]: 0.016 to 0.06 µM.
Take `CCc1cc(OC)cc2nc(-c3cccnc3N3CC[C@H](N4CCNC(=O)C4)C3)oc(=O)c12` [Compound 261]: the IC50 was below 0.015 µM.
Regarding `C=CCN1C[C@@H](C)N(c2ncccc2-c2nc3cc(OC)cc(CC)c3c(=O)o2)C[C@H]1C` [Compound 217], the IC50 was below 0.015 µM.
The same measure for `CCc1cccc2cc(-c3c[n+]([O-])ccc3Sc3ccc(Cl)cc3)oc(=O)c12` [Compound 86]: 0.061 to 0.15 µM; for `COc1cc(C(C)C)c2c(=O)oc(-c3cccnc3N3CCN(CC4CC4)CC3)nc2c1` [Compound 112]: 0.061 to 0.15 µM; for `COc1cc(C(C)C)c2c(=O)oc(-c3cccnc3N3CC[N+](C)(C)CC3)nc2c1` [Compound 130]: 0.061 to 0.15 µM.
On to `COc1cccc2nc(-c3ncccc3-n3ccnc3)oc(=O)c12` [Compound 69], for which the IC50 was above 0.15 µM.
In the case of `COc1cccc2nc(-c3cccnc3N(C)CC(=O)OCc3ccccc3)oc(=O)c12` [Compound 41], the IC50 was above 0.15 µM.
`COc1ccc(-c2nc3cccc(C)c3c(=O)o2)c(OC)n1` [Compound 22]: the IC50 is below 0.015 µM.
The same measure for `CCc1cccc2nc(-c3cccnc3N3CCC[C@H]3CN3CCCC3)oc(=O)c12` [Compound 98]: below 0.015 µM; for `CCCc1cc(OC)cc2nc(-c3cccnc3N3CCN(CC4CC4)CC3)oc(=O)c12` [Compound 157]: 0.061 to 0.15 µM.
Consider `Cc1cccc2nc(-c3cccnc3N3CC[C@@H](N(C)C)C3)oc(=O)c12` [Compound 178], for which the IC50 is 0.016 to 0.06 µM.
As to `CCc1cccc2nc(-c3cccnc3-n3ccnc3)oc(=O)c12` [Compound 67], the 50% inhibitory concentration (IC50) was below 0.015 µM.
The same measure for `CCc1cccc2nc(-c3cccnc3N3CC[N+](C)(CCOC)CC3)oc(=O)c12` [Compound 96]: below 0.015 µM; for `CCc1cc(OC)cc2nc(-c3cccnc3N3CCC(C)(C(=O)N4CCN(C)CC4)CC3)oc(=O)c12` [Compound 273]: 0.016 to 0.06 µM.
Turning to `COc1cc(C(C)C)c2c(=O)oc(-c3cnn(C)c3N3CCC(N(C)C)C3)nc2c1` (centres unmarked) [Compound 127], the IC50 was above 0.15 µM.
The same measure for `COc1cc(C(C)C)c2c(=O)oc(-c3cccnc3-n3ccnc3)nc2c1` [Compound 109]: 0.016 to 0.06 µM; for `COC(=O)[C@H]1CCCN1c1ncccc1-c1nc2cccc(C)c2c(=O)o1` [Compound 33]: 0.016 to 0.06 µM; for `C#CCN1CCN(c2ncccc2-c2nc3cccc(C(F)(F)F)c3c(=O)o2)CC1` [Compound 235]: below 0.015 µM.
Consider `CCc1cc(OC)cc2nc(-c3cccnc3N3CCN(c4ccccc4)CC3)oc(=O)c12` [Compound 223], for which the half-inhibitory concentration (IC50) lay in the range of 0.061 to 0.15 µM.
The same measure for `Cc1cccc2nc(-c3cc[n+]([O-])cc3)oc(=O)c12` [Compound 6]: above 0.15 µM; for `CCc1cc(OC)cc2nc(-c3cccnc3N3CCN(CC4CCCO4)CC3)oc(=O)c12` (centres unmarked) [Compound 218]: below 0.015 µM.
The same measure for `CCc1cc(OC)cc2nc(-c3ccnc(N4CCN(C)CC4)c3)oc(=O)c12` [Compound 205]: above 0.15 µM; for `COc1ccc(-c2nc3cccc(Cl)c3c(=O)o2)c(OC)n1` [Compound 38]: below 0.015 µM; for `COCCN1CCN(c2ncccc2-c2nc3cc(OC)cc(C(C)C)c3c(=O)o2)CC1` [Compound 113]: 0.061 to 0.15 µM.
`CCc1cc(OC)cc2nc(-c3cccnc3N3CC[N+](C)(CC4OCCO4)CC3)oc(=O)c12` [Compound 231]: the IC50 is below 0.015 µM.
The same measure for `Cc1cccc2nc(-c3cccnc3N3CCN(CCN(C)C)CC3)oc(=O)c12` [Compound 180]: 0.016 to 0.06 µM; for `COc1cc(C2CCC2)c2c(=O)oc(-c3cccnc3N3CCC[C@H](C(=O)O)C3)nc2c1` [Compound 174]: above 0.15 µM.
The figure for `CCc1cccc2nc(-c3cccnc3-n3cc[n+](CCCS(=O)(=O)[O-])c3)oc(=O)c12` [Compound 87] is below 0.015 µM; for `CCc1cccc2nc(-c3cccnc3N(C)CCN(C)C)oc(=O)c12` [Compound 154] it is below 0.015 µM; for `COc1cccc2nc(-c3cccnc3N3CCC[C@H]3C(=O)OC(C)(C)C)oc(=O)c12` [Compound 42] it is above 0.15 µM.
The same measure for `C#CCCN1CCN(c2ncccc2-c2nc3cc(OC)cc(CC)c3c(=O)o2)CC1` [Compound 228]: below 0.015 µM; for `CCc1cc(OC)cc2nc(-c3cccnc3N3CC[C@H]([N+](C)(C)C)C3)oc(=O)c12` [Compound 232, {1-[3-(5-Ethyl-7-methoxy-4-oxo-4H-benz[d][1,3]oxazin-2-yl)-pyridin-2-yl]-pyrrolidin-3-yl}-trimethyl-ammonium acetate]: below 0.015 µM.
In the case of `Cc1cccc2nc(-c3cccnc3N3CCC[C@H]3C(=O)OC(C)(C)C)oc(=O)c12` [Compound 32], the IC50 was in the range of 0.016 to 0.06 µM.
The figure for `COc1cc(C(C)C)c2c(=O)oc(-c3cccnc3N3CCN(CCN(C)C)CC3)nc2c1` [Compound 115] is 0.061 to 0.15 µM; for `CCCc1cc(OC)cc2nc(-c3cccnc3N3CC[C@@H](N(C)C)C3)oc(=O)c12` [Compound 149] it is 0.061 to 0.15 µM.
The figure for `CCc1cc(OC)cc2nc(-c3cccnc3N3CCN(c4ccncc4)CC3)oc(=O)c12` [Compound 252] is below 0.015 µM; for `Cc1cccc2nc(-c3cccnc3Cl)oc(=O)c12` [Compound 20] it is 0.016 to 0.06 µM; for `COc1cc(C)c2c(=O)oc(-c3cccnc3-n3ccnc3)nc2c1` [Compound 83] it is above 0.15 µM.

For the origin of these results see patent US7879846B2, “Serine hydrolase inhibitors” (Kyorin Pharmaceutical Co.., Ltd., priority 2006, dated 2011).
